Patent US7485759B2, “Minimization of ligand degradation products, or reversion of same to useful phosphine ligands” (Dow Technology Investments LLC, priority 2003, dated 2009)
Like-named read-outs stand apart in the source and are kept apart here.

Legend:
[1] = Hydrocarbonylation of 2-pentenal with different ligands; ligand converted to phosphonium ion ligand degradation product by 31P-NMR (Example 4); assay type: physicochemical; settings: ligand converted to phosphonium ion degradation product as percentage of total ligand; 3 hours, 70° C., 300 psig CO, 600 psig H2, 1570 ppm Rh, 4.6 mol ligand/mol Rh, 2-pentenal in 1-butanol
Procedure: In a series of hydroformylation reactions (4A-D) 2-pentenal (50 mmols) was subjected to hydrocarbonylation conditions for 3 hours using a rhodium catalyst promoted with a variety of ligands having different cone angles and pKa's. Hydrocarbonylation conditions included: 70° C., 300 psig (2,068 kPa) carbon monoxide, 600 psig (4,136 kPa) hydrogen, 1570 ppm Rh, 4.6 mol ligand/mol Rh, and 40 wt % initial 2-pentenal in 1-butanol solvent. The source of Rh was Rh4(CO)12. During the course of the reaction 2-pentenal was hydrogenated to valeraldehyde and then to pentanol. After the reaction was completed, the reaction fluid was examined by P^31-NMR spectroscopy to determine the amount of ligand converted to phosphonium ion ligand degradation product, as a percentage of the total ligand in solution.

[2] = Ligand basicity measured by pKa; assay type: physicochemical; settings: est = estimated value
Procedure: Basicity (electronic effect) measures the reactivity of a ligand towards a proton. Ligands with lower attraction to binding a proton are less basic, and therefore, generally of lower nucleophilicity. […] Generally, basicity is measured by pKa, known to those of skill in the art, as described in Organometallics, (1989) 8(1), 1, and by Wm. A. Henderson, Jr. and C. A. Streuli, Journal of the American Chemical Society, (1960), 82, 5791-5794, and by Tim Allman, et al., Canadian Journal of Chemistry (1982), 60(6), 716-722, all references incorporated herein by reference. Ligands having a pKa typically of less than about 8.3 provide for reduced formation of phosphonium ion ligand degradation products.

[3] = cited from earlier work
[4] = Batch hydrocarbonylation of 1,3-butadiene; phosphonium salts followed by 31P-NMR and ligand usage (Examples 1-3); assay type: physicochemical
Procedure: A batch hydrocarbonylation of 1,3-butadiene (BD) to pentenols was conducted at the following conditions: 70° C., 300 psig (2,068 kPa) carbon monoxide, 600 psig (4,136 kPa) hydrogen, 1570 ppm Rh, 4.6 mol ligand/mol Rh, and 40 wt % initial BD in 1-butanol solvent. Trioctylphosphine was used as ligand, and the Rh source was Rh4(CO)12. Multiple samples were taken from the reactor and analyzed by phosphorus-31 nuclear magnetic resonance spectroscopy (^31P-NMR) to follow the concentration of phosphonium ion ligand degradation products (phosphonium salts) with time. The concentration of phosphonium salts increased between t=0 and t=60 min, and their concentration reached a maximum of 0.008 mol/L at t=60 min. […] The concentration of 2-pentenal (α,β-unsaturated aldehyde) also reached a maximum at 60 min.
The BD conversion at the time when the concentrations of phosphonium salts and α,β-unsaturated aldehyde were at their maximum was 39%. Had the reaction been stopped at 39% conversion of BD, the ligand usage (lost) to phosphonium salts would have been 65 g/L/day. However, the reaction was continued until 480 minutes to allow for the 2-pentenal to react away under normal reaction conditions. […] The BD conversion at t=480 min was 98%. When the reaction was stopped at 98% BD conversion, the ligand usage (lost) to phosphonium salts was less than 1 g/L/day.
A batch hydrocarbonylation of 1,3-butadiene (BD) was conducted to partial conversion followed by stripping of the reaction product solution with hydrogen to hydrogenate residual α,β-unsaturated aldehyde (2-pentenal). The batch hydrocarbonylation was conducted at the following conditions: 70° C., 300 psig (2,068 kPa) carbon monoxide, 600 psig (4,136 kPa) hydrogen, 1590 ppm Rh, 4.5 mol ligand/mol Rh, and 40 wt % initial BD in 1-butanol solvent. The ligand used was trioctylphosphine, and the Rh source was Rh4(CO)12. The reaction was conducted for 130 minutes and reached 67% conversion BD. At that time, the concentration of phosphonium salts and α,β-unsaturated aldehyde (2-pentenal) were both about 0.006 mol/L. If no attempt had been made to revert the phosphonium salts at this point, the ligand usage (lost) to phosphonium salts would have been 25 g/L/day. The reactor was vented down to atmospheric pressure to remove most of the syn-gas (CO+H2). The reactor was then re-pressurized back to 900 psig (6,205 kPa) with pure hydrogen. […] Hydrogen was continuously sparged through the reactor at a rate of 0.5 standard cubic feet per hour (SCFH) during the time when the reactor was at 120° C. and 900 psig (6,205 kPa). After 10 minutes of stripping with hydrogen, all phosphonium salts were undetectable by ^31P-NMR, and the α,β-unsaturated aldehyde was undetectable by gas chromatography. The concentration of both of these species remained at essentially “0” for the remainder of the experiment. The ligand usage (loss to phosphonium salts) was reduced from 25 g/L/day to less than 1 g/L/day by reverting the phosphonium salts by hydrogenating the residual α,β-unsaturated aldehyde with hydrogen.
A batch hydrocarbonylation of 1,3-butadiene (BD) was conducted to partial conversion followed by stripping of the reaction product solution with nitrogen to remove residual α,β-unsaturated aldehyde (2-pentenal) by volatilization at […]. The batch hydrocarbonylation was conducted at the following conditions: 70° C., 300 psig (2,068 kPa) carbon monoxide, 600 psig (4,136 kPa) hydrogen, 1590 ppm Rh, 4.6 mol ligand/mol Rh, and 40 wt % initial BD in 1-butanol solvent. The ligand used was trioctylphosphine, and the Rh source was Rh4(CO)12. The reaction was conducted for 120 minutes and reached 72% conversion of BD. At that time, the concentration of phosphonium salts and α,β-unsaturated aldehyde were about 0.005 and 0.016 mol/L, respectively. If no attempt had been made to revert the phosphonium salts at this point, the ligand usage (lost) to phosphonium salts would have been about 20 g/L/day. […]

| % Phosphonium Salt (by wt.) [1] [%] | pKa [2] | ligand usage (lost) to phosphonium salts ([4]; Example 1, had the reaction been stopped at 39% conversion of BD) [g/L/day] | concentration of phosphonium salts ([4]; Example 1, maximum at t=60 min, 39% BD conversion, 70° C.) [mol/L] | ligand usage (lost) to phosphonium salts ([4]; Example 1, reaction stopped at 98% BD conversion) | concentration of phosphonium salts ([4]; Example 1, t=480 min, 98% BD conversion) [mol/L] | ligand usage (lost) to phosphonium salts ([4]; Example 2, 67% conversion BD, if no attempt made to revert) [g/L/day] | concentration of phosphonium salts ([4]; Example 2, 130 minutes, 67% conversion BD, before reversion) | phosphonium salts by 31P-NMR ([4]; Example 2, after 10 minutes of stripping with hydrogen, 120° C., 900 psig) | ligand usage (loss to phosphonium salts) ([4]; Example 2, after reversion with hydrogen) | ligand usage (lost) to phosphonium salts ([4]; Example 3, 72% conversion of BD, if no attempt made to revert) | concentration of phosphonium salts ([4]; Example 3, 120 minutes, 72% conversion of BD, before reversion) | concentration of phosphonium salts ([4]; Example 3, after 20 minutes of stripping with nitrogen, 120° C., 900 psig) [mol/L] | ligand usage (loss to phosphonium salts) ([4]; Example 3, after stripping with nitrogen) [g/L/day] | SMILES | PKa [3] | PKa ([3]; listed as tri-isobutylphosphine) |
| --- | --- | --- | --- | --- | --- | --- | --- | --- | --- | --- | --- | --- | --- | --- | --- | --- |
| 9.8 | ~8.9 |  |  |  |  |  |  |  |  |  |  |  |  | CCCCP(CCCC)C1CCCCC1 [Cyclohexyldi-n-butylphosphine] |  |  |
| 0.3 |  |  |  |  |  |  |  |  |  |  |  |  |  | CC(C)CP(CC(C)C)CC(C)C [Tri-isobutylphosphine] | 7.97 | less than 8.3 |
|  | ≥ 8.3 | 65 | 0.008 | less than 1 g/L/day | 0.0005 | 25 | about 0.006 mol/L | undetectable | less than 1 g/L/day | about 20 g/L/day | about 0.005 mol/L | 0.0005 | 2 | CCCCCCCCP(CCCCCCCC)CCCCCCCC [tri-n-octylphosphine] |  |  |
